Measured values: ChEMBL document CHEMBL1128112, “The Abu-pocket paradox of the cyclophilin a / cyclosporin a interaction” (1995)

Species: Mus musculus
Assay: Compound was tested in vitro for its immunosuppressive potential using mouse mixed lymphocyte reaction (MLR_M) with relative to Cyclophilin A
Type: functional

Q: How did the rIC50 turn out when `C/C=C/C[C@@H](C)[C@@H](O)[C@H]1C(=O)N[C@@H](C(O)Cc2ccccc2)C(=O)N(C)CC(=O)N(C)[C@@H](CC(C)C)C(=O)N[C@@H](C(C)C)C(=O)N(C)[C@@H](CC(C)C)C(=O)N[C@@H](C)C(=O)N[C@H](C)C(=O)N(C)[C@@H](CC(C)C)C(=O)N(C)[C@@H](CC(C)C)C(=O)N(C)[C@@H](C(C)C)C(=O)N1C` (stereo partly specified) was run?
A: The rIC50 was 360.
